In article PMC8144490, “Synthesis and Cytotoxic Activity of Novel Indole Derivatives and Their in silico Screening on Spike Glycoprotein of SARS-CoV-2” (Frontiers in Molecular Biosciences, 2021):
Where two headings read alike, the source gives them in different places.

What was measured:
Format in all cases: cell-based
[1] = test system: HepG2 (Liver) cancer cell line; assay: Cytotoxic activity (United States NCI protocol), HepG2; settings: Homo sapiens
Protocol: (§1) The cytotoxicity experiment was performed according to the United States NCI protocol, previously reported method. A detailed experimental procedure was given in Supplementary Material ([Premnath et al., 2015]).
(§2) The newly prepared compounds 1a–1j are examined for their cytotoxic activity according to the United States NCI protocol, which was a previously reported method ([Chadha and Silakari, 2017]). The 50% growth inhibition (GI50), tumor growth inhibition (TGI), and lethal concentration (LC50) values were determined. […] Doxorubicin was used as a standard drug. None of the tested derivatives had shown significant activity toward the cancer cell lines. The compounds were also evaluated for their possible cytotoxicity in human embryonic kidney cells (HEK-293), lung cells (MRC-5), and liver cells (LO2) by employing MTT assay. […] The results of cytotoxic screening of compounds (1a–1j) are shown in Table 2, and in vitro cytotoxicity of indole derivatives (1a–1j) on normal cells are shown in Table 3.

[2] = test system: MCF-7 (Breast) cancer cell line; assay: Cytotoxic activity (United States NCI protocol), MCF-7; settings: Homo sapiens; for GI50: 50% growth inhibition; for IC (TGI): tumor growth inhibition
Protocol: as §1, §2

[3] = test system: HeLa (Cervical) cancer cell line; assay: Cytotoxic activity (United States NCI protocol), HeLa; settings: Homo sapiens; for IC (TGI): read-out: TGI
Protocol: as §1, §2

lung cells (MRC5) = assay: In vitro cytotoxicity on normal cells, MTT assay, MRC5; settings: Homo sapiens
Protocol: as §2
(§3) None of the tested derivatives had shown significant activity toward the cancer cell lines. The compounds were also evaluated for the possible cytotoxicity in human embryonic kidney cells (HEK-293), lung cells (MRC5), and liver cells (LO2) by employing MTT assay.

[4] = test system: human embryonic kidney cells (HEK-293); assay: In vitro cytotoxicity on normal cells, MTT assay, HEK-293; settings: HEK293, HEK-293 normal kidney cells
Protocol: as §2, §3

liver cells (LO2) = assay: In vitro cytotoxicity on normal cells, MTT assay, LO2
Protocol: as §2, §3

[5] = HepG2, lethal concentration, read-out: LC50
[6] = HepG2, tumor growth inhibition, read-out: TGI
[7] = MCF7, MCF-7, lethal concentration, read-out: LC50 (the source's name)
[8] = 50% growth inhibition, read-out: GI50
[9] = lethal concentration, read-out: LC50 (the source's name)

Compound | GI50 ([1]; HepG2) | LC50 (NCI lethal concentration 50%) ([1]; HepG2, read-out: LC50) | IC (TGI) ([1]; HepG2, read-out: TGI) | CC50 ([2]; MCF7, read-out: LC50) | CC50 ([3]; read-out: LC50) | IC50 (lung cells (MRC5)) | IC50 [4] | IC50 (liver cells (LO2)) | LC50 (NCI lethal concentration 50%) [1, 5] | IC (TGI) [1, 6] | GI50 ([2]; MCF7, MCF-7) | CC50 [2, 7] | IC (TGI) ([2]; MCF7, MCF-7) | GI50 [3, 8] | CC50 [3, 9] | IC (TGI) ([3]; tumor growth inhibition) | GI50 [3] | IC (TGI) [3]
C(=N\NC(c1ccccc1)n1ccc2ccccc21)/c1ccco1 (centres unmarked) [Compound 1a] | 43.2 µM | > 100 µM | 78.3 µM | > 100 µM | 100 µM | 76.4 µM | 70.1 µM | 67.5 µM | – | – | – | – | – | – | – | – | – | –
O=[N+]([O-])c1cccc(C(N/N=C/c2ccco2)n2ccc3ccccc32)c1 (centres unmarked) [Compound 1b] | 42.2 µM | – | – | – | – | 67.2 µM | 62.1 µM | 72.2 µM | 56.8 µM | 23.1 µM | 46.1 µM | > 100 µM | 85.1 µM | 51 µM | > 100 µM | 89.2 µM | – | –
Oc1ccc(C(NN=Cc2ccco2)n2ccc3ccccc32)cc1 (centres unmarked) [Compound 1c] | 36.3 µM | 0.9 µM | 65.3 µM | 0.55 µM | 0.5 µM | 86.7 µM | 81.1 µM | 87.1 µM | – | – | – | – | – | – | – | – | 41.3 µM | 87.2 µM
Clc1ccc(C(N/N=C/c2ccco2)n2ccc3ccccc32)cc1 (centres unmarked) [Compound 1d] | 1 µM | – | – | – | – | 56.2 µM | 79.1 µM | 66.2 µM | 54 µM | 0.25 µM | 0.89 µM | 65 µM | 9.3 µM | 8.9 µM | 0.5 µM | 6.8 µM | – | –
COc1ccc(C(N/N=C/c2ccco2)n2ccc3ccccc32)cc1 (centres unmarked) [Compound 1e] | 15.9 µM | – | – | – | – | 72.8 µM | 57.1 µM | 56 µM | 44.8 µM | 38.2 µM | 24.4 µM | 66.3 µM | 59.3 µM | 34.2 µM | > 100 µM | 72.1 µM | – | –
Oc1ccccc1C(N/N=C/c1ccco1)n1ccc2ccccc21 (centres unmarked) [Compound 1f] | 29.1 µM | – | – | – | – | 51.2 µM | 66.2 µM | 68.2 µM | 57.5 µM | 46.8 µM | 18.6 µM | 42.3 µM | 41.8 µM | 21.6 µM | 77.4 µM | 54.7 µM | – | –
COc1cc(C(N/N=C/c2ccco2)n2ccc3ccccc32)ccc1O (centres unmarked) [Compound 1g] | 48 µM | – | – | – | – | 62.6 µM | 58.2 µM | 70.5 µM | 59.3 µM | 61.3 µM | 34 µM | 30.5 µM | 67.4 µM | 37.9 µM | 58.9 µM | 51.9 µM | – | –
CN(C)c1ccc(C(N/N=C/c2ccco2)n2ccc3ccccc32)cc1 (centres unmarked) [Compound 1h] | 21.3 µM | – | – | – | – | 66.3 µM | 67 µM | 58.2 µM | 72.1 µM | 41 µM | 12.9 µM | 10.3 µM | 45.3 µM | 52.9 µM | > 100 µM | 81.3 µM | – | –
C(=N\NCn1ccc2ccccc21)/c1ccco1 [Compound 1j] | 40.3 µM | – | – | – | – | 75.1 µM | 52.7 µM | 70.1 µM | 66.8 µM | 45.3 µM | 56 µM | 78.6 µM | 49.3 µM | 2.3 µM | 48.3 µM | 58.3 µM | – | –
COc1cccc2c1C(=O)c1c(O)c3c(c(O)c1C2=O)C[C@@](O)(C(=O)CO)C[C@@H]3O[C@H]1C[C@H](N)[C@H](O)[C@H](C)O1 [Doxorubicin, reference compound] | 0.01 µM | – | – | – | – | – | – | – | – | 0.13 µM | 0.02 µM | 0.74 µM | 0.21 µM | 0.05 µM | 0.88 µM | 0.41 µM | – | –
